The results in this text go back to patent US6960614B2, “Oxygenated esters of 4-lodo phenylamino benzhydroxamic acids” (Warner-Lambert Company, priority 2000, dated 2005).

This assay deals with MEK. The assay is described as follows: Cellular Assay for Measuring MEK Inhibition (inhibition of ERK phosphorylation in C26 cells, Western blot). In kind it is cell-based, murine. To be noted: for IC50: inhibition of ERK phosphorylation in murine colon 26 (C26) carcinoma cells, determined graphically from dose response curve; for % Inhibition @ 0.1 μM / % Inhibition @ 1 μM / % Inhibition @ 10 μM: ERK phosphorylation in C26 cells. How it is done:
The evaluation of the compounds as MEK inhibitors was performed in an assay that measures their ability to inhibit phosphorylation of MAP kinase […]) in murine colon 26 (C26) carcinoma cells. Since ERK1 and ERK2 represent the only known substrates for MEK, measurement of inhibition of ERK phosphorylation in cells provides direct readout of cellular MEK inhibition by the compounds of the invention. Briefly, the assay involves treating exponentially growing C26 cells with varying concentrations of the test compound (or vehicle control) for […] at 37° C. Cells are then rinsed free of compound/vehicle and lysed in a solution containing 70 mM NaCl, 50 mM glycerol phosphate, 10 mM HEPES, pH 7.4, 1% Triton X-100, 1 mM Na3VO4, 100 μM PMSF, 10 μM leupeptin and 10 μM pepstatin. Supernatants are then subjected to gel electrophoresis and Western blotting using a primary antibody recognizing dually phosphorylated ERK1 and ERK2. To evaluate total MAPK levels, blots were subsequently ‘stripped’ and re-probed with a 1:1 mixture of polyclonal antibodies recognizing unphosphorylated ERK1 and ERK2.
(In general: Immunoblotting shows a protein as a band on a membrane.)

In general, IC50 refers to the concentration at which inhibition is half-maximal. High values mean lower potency, low ones higher potency. As for `O=C(NOCC(O)CN1CCOCC1)c1cc(F)c(F)c(F)c1Nc1ccc(I)cc1Cl` (stereo not shown) [Example 145, 2-(2-Chloro-4-iodo-phenylamino)-3,4,5-trifluoro-N-(2-hydroxy-3-morpholin-4-yl-propoxy)-benzamide], 100 nM corresponded to half-maximal inhibition (IC50).
With `Cc1cc(I)ccc1Nc1c(C(=O)NOCC(O)CN2CCOCC2)cc(F)c(F)c1F` (stereo not shown) [Example 146, 3,4,5-Trifluoro-N-(2-hydroxy-3-morpholin-4-yl-propoxy)-2-(4-iodo-2-methyl-phenylamino)-benzamide], the “% Inhibition @ 0.1 μM” value was 0% and the “% Inhibition @ 1 μM” value was 40.5%.
The compound `Cc1cc(I)ccc1Nc1c(C(=O)NOCC(O)CN2CCOCC2)cc(Br)c(F)c1F` (stereo not shown) [Example 147, 5-Bromo-3,4-difluoro-N-(2-hydroxy-3-morpholin-4-yl-propoxy)-2-(4-iodo-2-methyl-phenylamino)-benzamide] showed an IC50 of 100 nM.
As to `Cc1cc(I)ccc1Nc1c(C(=O)NOCC(O)CN2CCOCC2)ccc(F)c1F` (stereo not shown) [Example 148, 3,4-Difluoro-N-(2-hydroxy-3-morpholin-4-yl-propoxy)-2-(4-iodo-2-methyl-phenylamino)-benzamide], the IC50 came to 230 nM.
Take `O=C(NOCC(O)CN1CCOCC1)c1cc(Cl)c(F)c(F)c1Nc1ccc(I)cc1Cl` (stereo not shown) [Example 149, 5-Chloro-2-(2-chloro-4-iodo-phenylamino)-3,4-difluoro-N-(2-hydroxy-3-morpholin-4-yl-propoxy)-benzamide]: half-maximal inhibition (IC50) required 170 nM.
`Cc1cc(I)ccc1Nc1c(C(=O)NOCC(O)CN2CCOCC2)cc(Cl)c(F)c1F` (stereo not shown) [Example 150, 5-Chloro-3,4-difluoro-N-(2-hydroxy-3-morpholin-4-yl-propoxy)-2-(4-iodo-2-methyl-phenylamino)-benzamide]: the “% Inhibition @ 0.1 μM” value turned out to be 49% and the “% Inhibition @ 1 μM” value is on record as 99.9%.
Take `O=C(NOCC(O)CN1CCOCC1)c1ccc(F)c(F)c1Nc1ccc(I)cc1F` (stereo not shown) [Example 151, 3,4-Difluoro-2-(2-fluoro-4-iodo-phenylamino)-N-(2-hydroxy-3-morpholin-4-yl-propoxy)-benzamide]: inhibition was half-maximal at 41 nM (IC50).
For the compound `O=C(NOCC(O)CN1CCOCC1)c1cc(Cl)c(F)c(F)c1Nc1ccc(I)cc1F` (stereo not shown) [Example 152, 5-Chloro-3,4-difluoro-2-(2-fluoro-4-iodo-phenylamino)-N-(2-hydroxy-3-morpholin-4-yl-propoxy)-benzamide], the “% Inhibition @ 0.1 μM” value is recorded as 59.2% and the “% Inhibition @ 1 μM” value was 90.3%.
On to `O=C(NOCC(O)CN1CCOCC1)c1cc(F)c(F)cc1Nc1ccc(I)cc1F` (stereo not shown) [Example 153, 4,5-Difluoro-2-(2-fluoro-4-iodo-phenylamino)-N-(2-hydroxy-3-morpholin-4-yl-propoxy)-benzamide], for which the “% Inhibition @ 0.1 μM” value is given as 13.9% and the “% Inhibition @ 1 μM” value is reported as 89.5%.
In the case of `O=C(NOCC(O)CN1CCOCC1)c1cc(Cl)c(F)c(F)c1Nc1ccc(F)cc1F` (stereo not shown) [Example 154, 5-Chloro-2-(2,4-difluoro-phenylamino)-3,4-difluoro-N-(2-hydroxy-3-morpholin-4-yl-propoxy)-benzamide], the “% Inhibition @ 1 μM” value worked out at 8.9% and the “% Inhibition @ 10 μM” value turned out to be 51%.
With `O=C(NOCC(O)CN1CCOCC1)c1ccc(F)c(F)c1Nc1ccc(Cl)cc1F` (stereo not shown) [Example 155, 2-(4-Chloro-2-fluoro-phenylamino)-3,4-difluoro-N-(2-hydroxy-3-morpholin-4-yl-propoxy)-benzamide], the “% Inhibition @ 0.1 μM” value was 0% and the “% Inhibition @ 1 μM” value worked out at 30.9%.
`CC(O)CONC(=O)c1ccc(F)c(F)c1Nc1ccc(I)cc1Cl` (stereo not shown) [Example 156, 2-(2-Chloro-4-iodo-phenylamino)-3,4-difluoro-N-(2-hydroxy-propoxy)-benzamide]: the IC50 turned out to be 11 nM.
Turning to `Cc1cc(I)ccc1Nc1c(C(=O)NOCC(C)O)cc(F)c(F)c1F` (stereo not shown) [Example 157, 3,4,5-Trifluoro-N-(2-hydroxy-propoxy)-2-(4-iodo-2-methyl-phenylamino)-benzamide], the “% Inhibition @ 0.1 μM” value came out at 50.7% and the “% Inhibition @ 1 μM” value is given as 91.5%.
For `Cc1cc(I)ccc1Nc1c(C(=O)NOCC(C)O)cc(Br)c(F)c1F` (stereo not shown) [Example 159, 5-Bromo-3,4-difluoro-N-(2-hydroxy-propoxy)-2-(4-iodo-2-methyl-phenylamino)-benzamide], the “% Inhibition @ 0.1 μM” value was determined as 88.4% and the “% Inhibition @ 1 μM” value worked out at 100%.
Turning to `CC(O)CONC(=O)c1cc(F)c(F)c(F)c1Nc1ccc(I)cc1Cl` (stereo not shown) [Example 160, 2-(2-Chloro-4-iodo-phenylamino)-3,4,5-trifluoro-N-(2-hydroxy-propoxy)-benzamide], the “% Inhibition @ 0.1 μM” value amounted to 71.9% and the “% Inhibition @ 1 μM” value stood at 96.8%.
In turn, `CC(O)CONC(=O)c1cc(Cl)c(F)c(F)c1Nc1ccc(I)cc1Cl` (stereo not shown) [Example 161, 5-Chloro-2-(2-chloro-4-iodo-phenylamino)-3,4-difluoro-N-(2-hydroxy-propoxy)-benzamide] gave an IC50 of 15 nM.
The same measure, in the same setting: to `Cc1cc(I)ccc1Nc1c(C(=O)NOCC(C)O)ccc(F)c1F` (stereo not shown) [Example 162, 3,4-Difluoro-N-(2-hydroxy-propoxy)-2-(4-iodo-2-methyl-phenylamino)-benzamide] belongs 7.85 nM.
For `Cc1cc(I)ccc1Nc1c(C(=O)NOCC(C)O)cc(Cl)c(F)c1F` (stereo not shown) [Example 163, 5-Chloro-3,4-difluoro-N-(2-hydroxy-propoxy)-2-(4-iodo-2-methyl-phenylamino)-benzamide], the “% Inhibition @ 0.1 μM” value came out at 88.9% and the “% Inhibition @ 1 μM” value was determined as 95.1%.
On to `CC(O)CONC(=O)c1ccc(F)c(F)c1Nc1ccc(I)cc1F` (stereo not shown) [Example 164, 3,4-Difluoro-2-(2-fluoro-4-iodo-phenylamino)-N-(2-hydroxy-propoxy)-benzamide], for which 3 nM corresponded to half-maximal inhibition (IC50).
Consider `CC(O)CONC(=O)c1cc(Cl)c(F)c(F)c1Nc1ccc(I)cc1F` (stereo not shown) [Example 165, 5-Chloro-3,4-difluoro-2-(2-fluoro-4-iodo-phenylamino)-N-(2-hydroxy-propoxy)-benzamide], for which the IC50 stood at 4 nM.
With `CC(O)CONC(=O)c1cc(Cl)c(F)c(F)c1Nc1ccc(F)cc1F` (stereo not shown) [Example 166, 5-Chloro-2-(2,4-difluoro-phenylamino)-3,4-difluoro-N-(2-hydroxy-propoxy)-benzamide], the “% Inhibition @ 0.1 μM” value is listed as 0%, the “% Inhibition @ 1 μM” value is listed as 31.9% and the “% Inhibition @ 10 μM” value is listed as 88.7%.
Regarding `CC(O)CONC(=O)c1ccc(F)c(F)c1Nc1ccc(F)cc1F` (stereo not shown) [Example 167, 2-(2,4-Difluoro-phenylamino)-3,4-difluoro-N-(2-hydroxy-propoxy)-benzamide], the “% Inhibition @ 1 μM” value was 80.5% and the “% Inhibition @ 10 μM” value was 89.2%.
With `CC(O)CONC(=O)c1ccc(F)c(F)c1Nc1ccc(Cl)cc1F` (stereo not shown) [Example 168, 2-(4-Chloro-2-fluoro-phenylamino)-3,4-difluoro-N-(2-hydroxy-propoxy)-benzamide], the “% Inhibition @ 0.1 μM” value came to 48.8% and the “% Inhibition @ 1 μM” value is 89.5%.
`CC(O)CONC(=O)c1cc(F)c(F)cc1Nc1ccc(I)cc1F` (stereo not shown) [Example 169, 4,5-Difluoro-2-(2-fluoro-4-iodo-phenylamino)-N-(2-hydroxy-propoxy)-benzamide] returned an IC50 of 14 nM.
With `CC(C)(O)CONC(=O)c1cc(F)c(F)c(F)c1Nc1ccc(I)cc1Cl` [Example 170, 2-(2-Chloro-4-iodo-phenylamino)-3,4,5-trifluoro-N-(2-hydroxy-2-methyl-propoxy)-benzamide], the “% Inhibition @ 0.1 μM” value worked out at 19% and the “% Inhibition @ 1 μM” value was determined as 85.7%.
In the case of `Cc1cc(I)ccc1Nc1c(C(=O)NOCC(C)(C)O)cc(F)c(F)c1F` [Example 171, 3,4,5-Trifluoro-N-(2-hydroxy-2-methyl-propoxy)-2-(4-iodo-2-methyl-phenylamino)-benzamide], the “% Inhibition @ 0.1 μM” value worked out at 35.6% and the “% Inhibition @ 1 μM” value is on record as 94.6%.
For `Cc1cc(I)ccc1Nc1c(C(=O)NOCC(C)(C)O)cc(Br)c(F)c1F` [Example 172, 5-Bromo-3,4-difluoro-N-(2-hydroxy-2-methyl-propoxy)-2-(4-iodo-2-methyl-phenylamino)-benzamide], in that order: 41.9% and 92.9%.
`CC(C)(O)CONC(=O)c1cc(Br)c(F)c(F)c1Nc1ccc(I)cc1Cl` [Example 173, 5-Bromo-2-(2-chloro-4-iodo-phenylamino)-3,4-difluoro-N-(2-hydroxy-2-methyl-propoxy)-benzamide]: the IC50 was determined as 300 nM.
Compound `Cc1cc(I)ccc1Nc1c(C(=O)NOCC(C)(C)O)ccc(F)c1F` [Example 174, 3,4-Difluoro-N-(2-hydroxy-2-methyl-propoxy)-2-(4-iodo-2-methyl-phenylamino)-benzamide] returned an IC50 of 100 nM.
In turn, `CC(C)(O)CONC(=O)c1cc(Cl)c(F)c(F)c1Nc1ccc(I)cc1Cl` [Example 175, 5-Chloro-2-(2-chloro-4-iodo-phenylamino)-3,4-difluoro-N-(2-hydroxy-2-methyl-propoxy)-benzamide] yielded an IC50 of 180 nM.
Consider `Cc1cc(I)ccc1Nc1c(C(=O)NOCC(C)(C)O)cc(Cl)c(F)c1F` [Example 176, 5-Chloro-3,4-difluoro-N-(2-hydroxy-2-methyl-propoxy)-2-(4-iodo-2-methyl-phenylamino)-benzamide], for which the “% Inhibition @ 0.1 μM” value is 14.1% and the “% Inhibition @ 1 μM” value amounted to 87.7%.
